Each block holds one compound with its values, some of them ahead of it.
Key:
HPRT [1] = target: T1, HPRT (Homo sapiens, UniProt P00492); settings: higher for HPRT; cited from earlier work
T1 sequence (P00492 1-218): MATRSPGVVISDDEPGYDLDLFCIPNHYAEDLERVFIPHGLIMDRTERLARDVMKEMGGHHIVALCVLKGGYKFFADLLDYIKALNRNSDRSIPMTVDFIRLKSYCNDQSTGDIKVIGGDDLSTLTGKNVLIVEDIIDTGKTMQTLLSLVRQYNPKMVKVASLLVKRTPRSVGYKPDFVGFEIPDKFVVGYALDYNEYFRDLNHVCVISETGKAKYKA

[2] = system: Experimental Autoimmune Encephalomyelitis; EAE; settings: earlier work; cited from earlier work
DNA = settings: incorporated into DNA after HPRT activity; cited from earlier work
[3] = target: queuine-insertase enzyme complex (Homo sapiens, UniProt Q9BXR0); test: [14C] guanine displacement assay (queuine-insertase substrate); format: biochemical
Excerpt: The skilled reader will be aware of methods for determining whether or not a particular molecule is a substrate for the queuine-insertase enzyme complex. For example, molecules capable of acting as a queuine-insertase enzyme complex substrate may be identified by use of a displacement assay as described below (FIG. 1):
Production of [8-^14C] Guanine Labeled tRNA (tRNA*)
Before adding the 8-[^14C] guanine solution to the reaction the solution was neutralised with an equal volume (vol/vol) 0.01 M NaOH, as the [8-^14C] Guanine is supplied in 0.01 M HCl aqueous solution. A stock solution of yeast tRNA from Saccharomyces cerevisiae was made to a concentration of 2 absorbance units (260 nm) in ultrapure nuclease-free water. The recombinant Escherichia coli (E. coli) tRNA guanine transglycosylase enzyme (E. coli TGT) containing an N-terminal polyhistidine tag was produced in BL21 BL21(DE3) tgt:Kmr cells as described previously (Boland et al., 2009).
The reaction was incubated for 2 h at 37° C. After incubation the reaction was made up to 400 μL with buffer. […] The tRNA* pellet was resuspended in 20 μL nuclease-free water and the concentration measured spectrophotometrically at A260. […]
After incubation the reaction was loaded onto the column and spun at 0.1×g for 10 seconds. […] The vials containing the flow-through and washes are counted for displaced [^14C] guanine. […]

HPRT [4] = target: T1, HPRT; test: HPRT assay (substrate or inhibitor of HPRT); format: biochemical; settings: in vitro, FIG. 2
Excerpt: Similarly, the skilled reader will be aware of methods suitable for determining whether a compound is a substrate or inhibitor of HPRT. For example, molecules that are […] for HPRT may be identified by use of the following assay:
Assay to Evaluate Compounds as Substrates or Inhibitors of the Hypoxanthine-Guanine Phosphoribosyltransferase Enzyme or ‘HPRT Assay’ (FIG. 2).
Preparation and Equilibration of Column:
Dowex-1×8, mesh size 200-400, was weighed out in a sterile 50 ml tube and washed 3 times with aqueous 1 M HCl to charge the resin. The resin was then washed 5-6 times with (20 mls each) Milli-Q H2O until a neutral pH was reached. Columns (Bio-rad 10 mL plastic columns) were set up with 1 mL of wet Dowex (wet mix applied, allowed to settle and more applied until a packed volume of 1 mL was reached). The packed resin was rinsed with 10 volumes (v/v) milli-Q H2O to ensure that a neutral pH and consistent packing was achieved.
HPRT Reactions are set up in 100 μL volume in triplicate with the following components: […]
After inactivation, the reactions were cooled to room temperature (using ice), before being applied to a 1 mL packed resin column of Dowex-1×8, mesh size 200-400. […] 15 mL of scintillation cocktail (Ecoscint A) was added and vials counted to evaluate the level of conversion of [8-^14C]-guanine to GMP. […]

wild-type T cells = test: Proliferation of wild-type cells; format: cell-based; settings: 100 μM, FIG. 4a
Excerpt: (§1) FIGS. 4a, 4b, 4c, and 4d depict the molecules effects on total percentage of proliferation in wild-type spleenocytes, HPRT knockout spleenocytes, HPRT:TGT double knockout spleenocytes, and wild-type versus single TGT knockout spleenocytes respectively;

TGT KO cells = test: Proliferation of TGT knockout cells; format: cell-based; settings: 100 μM, FIG. 4d
Excerpt: as §1

[5] = system: HPRT:TGT double knockout spleenocytes; test: Proliferation of TGT:HPRT double knockout cells; format: cell-based; settings: 100 μM, FIG. 4c
Excerpt: as §1

[6] = system: chronic monophasic EAE disease; test: Chronic monophasic EAE disease in mice; format: in vivo, mice (C57BL/6)
Protocol: To assess the potential of these compounds in vivo, a chronic monophasic EAE disease in mice was induced before treatment with the new chemical entity (NCE). EAE Disease was induced in 8-10 week old female mice (C57BL/6) by sub-cutaneous (s.c.) injection of 200 II emulsion containing 150 μg […] peptide (Genscript) in Complete Freund's Adjuvant (CFA; containing 5 mg/ml heat-inactivated Mycobacterium tuberculosis). On the same day, mice were administered 500 ng Pertussis Toxin (Kaketsuken, Japan) intraperitoneally (i.p.) and again two days later. Disease severity was recorded every 24 hours: 0-Normal; 1-flaccid tail; 2-imparied/wobbly gait; 3-complete hind limb weakness; 4-hind limb and forelimb paralysis; 5-moribund state/dead. Protocol is based on the Nature Protocols for Active induction of experimental allergic encephalomyelitis, which includes the scoring methodology: • Stromnes I M, Goverman J M (2006) Active induction of experimental allergic encephalomyelitis. Nat Protoc. 1(4):1810-9.
The EAE score relates to an assessment of disease progression with respect to issues like tail paralysis and limb paralysis, a higher score is a worse condition. A score of 1 indicates decreased tail tone, a score of 2 indicates hind leg weakness (paraparesis), a score of 3 indicates hind limb paralysis and/or incontinence. Note that the untreated animals have a continuous and progressive worsening of disease.
This contrasts with the sustained drop in body weight of non-treated EAE diseased animals to a level 86.4% that of controls at 21 dpi (17.8 grams versus 20.6 grams). Motor coordination and hind-limb strength were also evaluated by the ability of mice to cross a horizontal bar (FIG. 7). Non-diseased animals crossed the bar with an average time of 4.3±0.57 seconds.

Sequence of queuine-insertase enzyme complex (Q9BXR0 whole entry): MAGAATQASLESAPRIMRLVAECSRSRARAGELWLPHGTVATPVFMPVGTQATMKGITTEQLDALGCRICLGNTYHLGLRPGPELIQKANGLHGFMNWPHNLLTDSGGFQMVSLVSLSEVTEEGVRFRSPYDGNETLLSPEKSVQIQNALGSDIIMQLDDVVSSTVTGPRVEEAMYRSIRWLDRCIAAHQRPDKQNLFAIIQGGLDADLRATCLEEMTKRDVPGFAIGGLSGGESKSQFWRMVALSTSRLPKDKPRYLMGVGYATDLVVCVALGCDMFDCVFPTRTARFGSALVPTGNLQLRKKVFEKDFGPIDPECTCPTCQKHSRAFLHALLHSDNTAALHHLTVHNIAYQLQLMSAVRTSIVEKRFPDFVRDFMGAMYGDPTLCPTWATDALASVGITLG
Sequence of queuine-insertase enzyme complex (Q9H974 whole entry partner): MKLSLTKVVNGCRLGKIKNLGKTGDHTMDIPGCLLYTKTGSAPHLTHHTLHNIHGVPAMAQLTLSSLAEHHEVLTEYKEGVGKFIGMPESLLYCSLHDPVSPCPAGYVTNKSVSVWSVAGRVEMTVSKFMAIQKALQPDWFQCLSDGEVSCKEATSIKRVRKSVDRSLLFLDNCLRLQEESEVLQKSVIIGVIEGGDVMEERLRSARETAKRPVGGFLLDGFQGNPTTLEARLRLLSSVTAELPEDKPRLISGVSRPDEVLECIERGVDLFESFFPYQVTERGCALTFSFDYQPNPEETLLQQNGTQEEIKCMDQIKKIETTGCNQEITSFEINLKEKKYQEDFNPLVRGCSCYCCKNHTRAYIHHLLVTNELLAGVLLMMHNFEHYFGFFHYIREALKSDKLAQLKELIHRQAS

SMILES: Nc1nc2nc[nH]c2c(=S)[nH]1 [Example 6TG, 6-thioguanine]
substrate potency for HPRT relative to queuine-insertase enzyme complex (HPRT [1]): approx. 10 fold
effect on the murine model of chronic MS (EAE) [2]: dramatic effect
genotoxicity (DNA): genotoxic

maximum displacement of [14C] guanine ([3]; 200 μM compound, background ≤10 pmol, ≥50 pmol counts as positive substrate): 240 pmol
SMILES: Nc1nc2[nH]cc(CN[C@H]3C=C[C@H](O)[C@@H]3O)c2c(=O)[nH]1 [queuine, 2-amino-5-((((1S,4S,5R)-4,5-dihydroxycyclopent-2-en-1-yl)amino)methyl)-3,7-dihydro-4H-pyrrolo[2,3-d]pyrimidin-4-one, reference compound]

substrate for TGT (queuine-insertase enzyme complex) ([3]; in vitro, recombinant TGT enzyme, FIG. 1): substrate for TGT
substrate or inhibitor of HPRT (HPRT [4]): not to be a substrate or inhibitor
SMILES: Cl.Nc1nc2[nH]cc(CNCCCc3ccccc3)c2c(=O)[nH]1 [Compound I, N-((2-amino-4-oxo-4,7-dihydro-3H-pyrrolo[2,3-d]pyrimidin-5-yl)methyl)-3-phenylpropan-1-aminium chloride]
proliferation (wild-type T cells): less than 50%
effect on proliferation (TGT KO cells): lack of effect
effect on proliferation [5]: essentially unaffected
EAE score outcome after 4 daily treatments ([6]; EAE mice, 30 mg/kg, i.p., FIG. 5): disease free
time to reversal of symptoms ([6]; EAE mice, 30 mg/kg, i.p., highest dosage, FIG. 5): ≤ 24 h
EAE disease progression ([6]; EAE mice, lower doses, FIG. 5): disease progression was halted and reversed
motor coordination and hind-limb strength (horizontal bar crossing) ([6]; EAE mice, within 4 treatments, FIG. 7): fully restored the performance of EAE diseased mice to control levels
weight level relative to controls ([6]; treated EAE mice, 21 days post inoculation, FIG. 6): 96.6%
body weight ([6]; treated EAE mice, 21 days post inoculation, controls 20.6 grams, FIG. 6): 19.9 grams

Source: US11229652B2, “Treatments for autoimmune disease” (THE PROVOST, FELLOWS, FOUNDATION SCHOLARS, AND THE OTHER …, priority 2014, dated 2022)
